Experimental data as given in patent US20090317457A1, “ANTI-INFLAMMATORY AND WOUND HEALING EFFECTS OF LYMPHOID THYMOSIN B-4” (Yale University, priority 2002, published 2009).

Key:
[1] = test system: λ-carrageenan induced neutrophil mediated inflammation of the footpad; conditions: oxidised form; reference 8; cited from earlier work
[2] = test system: human umbilical vein endothelial cells (HUVEC); conditions: references 8, 9; cited from earlier work
[3] = test system: λ-carrageenan induced neutrophil mediated inflammation of the footpad; assay: λ-carrageenan-induced footpad inflammation (footpad swelling); assay type: in vivo, BALB/c mice; conditions: for Footpad Thickness (+/− SE): Un-Methionated Thymosin Experiment (A), oxidised peptide
Description: Experimental groups of 8-10 female BALB/c mice, 8-10 weeks of age, were housed in temperature controlled rooms and given food and water ad libitum. Observations and measurements were made by an investigator blinded to the experimental group. λ-Carrageenan injection. After measuring the baseline thickness of the hind footpads with a spring-loaded engineer's micrometer, mice were injected subcutaneously in both hind paws with 340 μg of λ-carrageenan in 40 μl. 6 h., 24 h., and 48 h. after the injection of λ-carrageenan, footpads were re-measured and swelling calculated by subtracting the baseline from the experimental measurements. For each mouse, increases in right and left footpad thickness were averaged. Thymosin peptides were injected as previously described [reference 8]: (i) intraperitoneally with 100 μl of 3.50×10^−5 M peptide solution, 30 minutes before footpad injection; (ii) intradermally into the footpad with 40 μl of 8.75×10^−5 M peptide solution and λ-carrageenan at time 0, and (iii) intraperitoneally with 100 μl of 3.50×10^−5 M peptide solution, 6 h. after footpad injection. For each group, the mean increase in footpad thickness was calculated, and compared to other groups using a one-tailed Student's t-test. The experiment was repeated four times. Statistics. Groups were compared for differences in the meaning using a one-tailed Student's t test; p<0.05 was considered statistically significant.

neutrophil chemotaxis = conditions: chemically-synthesized peptide; reference 8; cited from earlier work
[4] = test system: DNFB-induced allergic contact dermatitis of ear skin; assay: DNFB allergic contact dermatitis (ACD) ear swelling assay; assay type: in vivo, FVB mice; conditions: for DNFB Ear Thickness (+/− SE): Un-Methionated Thymosin Experiment; for ear thickness: unit not given
Description: Experimental groups of 8-10 female FVB mice, 8-10 weeks of age, were housed in temperature controlled rooms and given food and water ad libitum. Observations and measurements were made by an investigator blinded to the experimental group. Mice were sensitized on day 0 by epicutaneous application to razor-shaved abdominal skin of 25 μl of 0.5% DNFB in a mixture of acetone:olive oil (4:1). Before the challenge with DNFB, mice were injected (i) intraperitoneally with 100 μl of 3.50×10^−5 M thymosin peptide solution (30 minutes before DNFB) and (ii) intradermally with 40 μl of 8.75×10^−5 M peptide solution in both ears (1 min prior to DNFB challenge). On day 5, after measuring baseline ear thickness with an engineer's micrometer, mice were challenged by applying 10 μl of 0.2% DNFB in acetone:olive oil to each side of each ear. Ears were re-measured 6 h., 24 h., and 48 h. after challenge, and data expressed as the response above baseline (i.e., ear thickness 24 h. after challenge minus ear thickness immediately prior to challenge)±1 standard error of the mean (S.E.). For each mouse, increases in right and left ear thickness were averaged. The experiment was repeated twice. Statistics. Groups were compared for differences in the meaning using a one-tailed Student's t test; p<0.05 was considered statistically significant.

N-SDKPDMAEIEKFDKSKLKKTETQEKNPL-PSKETIEQEKQAGES-C (SEQ ID NO:1) [UTβ4]
inhibition of λ-carrageenan-induced edema/inflammation in the mouse footpad [1]: active
closure of scratch wounds in endothelial cell and keratinocyte monolayers in vitro [2]: promote the closure
suppression of footpad inflammation relative to PBS ([3]; 6 h): 12%
suppression of footpad inflammation relative to PBS ([3]; 24 h): 30%
footpad thickness ([3]; 24 h, unit not given): 0.37±0.03
suppression of footpad inflammation relative to PBS ([3]; 48 h): 31%
Footpad Thickness (+/− SE) ([3]; forty-eight hours after λ-carrageenan): 0.41 ± 0.04 mm
Footpad Thickness (+/− SE) ([3]; six hours after λ-carrageenan, increase over baseline): 0.53 ± 0.03 mm
Footpad Thickness (+/− SE) ([3]; twenty-four hours after λ-carrageenan): 0.37 ± 0.03 mm
neutrophil chemotaxis in vitro (neutrophil chemotaxis): inhibit neutrophil chemotaxis in vitro
suppression of ACD ear swelling response relative to PBS ([4]; 6 h): −4%
ear swelling response compared to mice receiving PBS or UTβ4 (FIG. 4A) ([4]; 6 h, 24 h and 72 h after challenge): no significant suppression
suppression of ACD ear swelling response relative to PBS ([4]; 24 h): 5%
suppression of ACD ear swelling response relative to PBS ([4]; 72 h): 2%
DNFB Ear Thickness (+/− SE) ([4]; forty-eight hours after challenge): 19.90 ± 1.02 .01 mm
DNFB Ear Thickness (+/− SE) ([4]; six hours after challenge): 9.85 ± 0.66 .01 mm
DNFB Ear Thickness (+/− SE) ([4]; twenty-four hours after challenge): 22.68 ± 1.33 .01 mm
ear thickness ([4]; seventy-two hours): 19.90±1.02
ear thickness ([4]; six hours): 9.85±0.66
ear thickness ([4]; twenty-four hours): 22.68±1.33
